Read-outs that look alike come from different tables or passages of the source. One block for each molecule: values may come before it.
Tests used:
[1] = tested on: serum glucose concentration; experiment: Oral glucose tolerance test (pharmacodynamics) before and after glimepiride with or without OJS; settings: glucose 50 g (glimepiride alone), 75 g (with OJS)
Experimental: Oral glucose tolerance tests (OGTT) were performed before and after glimepiride administration on days 1 and 9, and days 2 and 10, respectively, to assess the PD effects (Supplementary information).
The PD parameters included the maximum serum glucose concentration (Gmax), 2-hour serum glucose level (PP2), and area under the glucose concentration-time curve for 4 h after glucose administration (AUG0–4 h), which was calculated using the linear trapezoidal rule. The change values of Gmax, PP2, and AUG0–4 h were calculated by subtracting the baseline serum glucose concentrations from the corresponding post-administration values at each time point, following glimepiride administration with or without OJS. The maximum of these difference values was defined as the change in Gmax, and the value at 2 h as the change in PP2. The area under the curve from 0 to 4 h was calculated using linear trapezoidal method and defined as change in AUG0 − 4 h. Additionally, the percent change (%change) was calculated as: 100×(change value / baseline value).
The initial protocol stipulated the administration of 75 g of glucose; however, due to a lapse in protocol adherence by the administering clinical research nurse, which involved an incorrect glucose dosage of 50 g stemming from a failure to accurately verify the medication label, a deviation occurred (a report of this protocol violation was filed with the Institutional Review Board). Consequently, the plasma glucose assessment post-glimepiride monotherapy was conducted using 50 g of glucose, whereas the evaluation of the combined effect of glimepiride and OJS during the second admission utilized 75 g of glucose, introducing variance in glucose exposure across the two evaluations.

[2] = Pharmacokinetics of glimepiride and M1 in plasma, glimepiride alone versus with Ojeok-san, clinical crossover study; settings: for Reduction of mean Cmax with OJS compared to glimepiride monotherapy: absorption phase; for CL/F / t1/2,0–24 h / AUC(0-t) / half-life / t1/2,0–48 h: mean ± SD; for Tmax: median (min–max); for Geometric mean ratio of AUC0–24 h (%, 90% CI) / Geometric mean ratio of AUC0–48 h (%, 90% CI) / Geometric mean ratio of AUCinf (%, 90% CI) / Geometric mean ratio of Cmax (%, 90% CI): glimepiride and OJS co-administration to glimepiride alone
Experimental: (§1) Glimepiride (4 mg) was orally administered once daily on days 1–2 during period 1. Subsequently, the 4.35 g/pack of OJS was orally administered three times a day on days 4–11 during period 2, and glimepiride (4 mg) was co-administered once a day on days 9–10 during period 2. Glimepiride (4 mg) was administered at approximately 12:00 PM on days 1 and 9 and at approximately 8:00 AM on days 2 and 10. The 4.35 g/pack of OJS was administered thrice a day at 7:00–10:00 AM, 12:00–03:00 PM, and 6:00–9:00 PM on days 4–11. However, during hospitalization, OJS was administered at approximately 7:00 AM on days 9–10, just 1 h before glimepiride administration.
(§2) For the PK analysis of glimepiride, blood samples were collected immediately before the glimepiride administration on days 1 and 9 on the first day of each period. On days 2 and 10, blood samples were collected immediately before glimepiride administration (0 h) and 0.25, 0.5, 1, 1.5, 2, 2.5, 3, 3.5, 4, 5, 6, 8, 12, 15, 24, and 48 h after glimepiride administration.
(§3) The analyte was separated using a YMC hydrosphere C18 (50 × 2.0 mm, 3 μm; YMC, USA) at 40 ℃. The mobile phase consists of 5 mM ammonium formate and 100% acetonitrile (20:80, v/v) with a flow rate of 180 µL/min. The compounds were detected in the positive mode using an electrospray ionization source. […] A linear response of glimepiride was shown in the range of 2 to 1000 ng/mL (r^2 ≥ 0.9970), and the lower limit of quantification was determined as 2 ng/mL.
(§4) PK parameters were calculated using the noncompartmental method in Phoenix WinNonlin 8.3 (Certara USA Inc., Princeton, NJ, USA). […] The terminal elimination rate constant (kz) was estimated from the regression of the log-linear decrease in the plasma concentration-time profile. The terminal elimination half-life (t1/2) was calculated as the natural logarithm of 2 divided by kz. The area under the plasma concentration-time curve (AUC) from dosing to 24 h post-dosing (AUC0–24 h) and AUC0–48 h from dosing to 48 h post-dosing were calculated using the linear/log trapezoidal rule. The AUC from 0 to infinity (AUCinf) was calculated as AUC0–24 h + C24 / kz, where kz is the terminal elimination rate constant estimated from linear regression of the terminal phase of the log-linear plot of the plasma concentration-time curve. The metabolic ratio was calculated by dividing the M1 AUC0–24 h by glimepiride AUC0–24 h.
(§5) All statistical analyses were performed using SAS 9.4 (SAS Institute Inc. Cary, NC, USA). Descriptive statistics were calculated for continuous variables.

glucose = tested on: glucose; design: method as in PMID 33262578; settings: 4 mg glimepiride, 75 g glucose load; cited from earlier work
[3] = cited from earlier work
healthy male subjects = experiment: Safety and tolerability (adverse events) in healthy male subjects; format: in vivo, human
Experimental: Safety and tolerability were assessed during the study period. The occurrence of AEs was monitored, and the investigators assessed its causal relationship with the study drugs. Vital signs, 12-lead electrocardiography (ECGs), physical examinations, and laboratory tests were performed and reviewed.

[4] = human, in vivo, 4 mg
Experimental: as §1, §2, §3, §4, §5

[5] = OGTT after glimepiride, mean ± SD
[6] = glimepiride 4 mg qd + OJS 4.35 g tid, N = 13
[7] = glimepiride 4 mg qd alone, N = 16
[8] = male, human, plasma, oral, 4 mg
[9] = glimepiride administered with a meal

Reduction of mean Cmax with OJS compared to glimepiride monotherapy [2]: approximately 16.86%
CL/F [2, 6]: 3.68 ± 1.54 L/h
Tmax ([2]; glimepiride 4 mg qd alone, day 2, plasma, N = 16): 4.5 (2.0–5.0) h
CL/F [2, 7]: 3.28 ± 1.16 L/h
t1/2,0–24 h [2, 7]: 8.53 ± 4.69 h
Geometric mean ratio of AUC0–24 h (%, 90% CI) [2]: 86.43 (77.56–96.31) %
Geometric mean ratio of AUC0–48 h (%, 90% CI) [2]: 86.98 (77.49–97.63) %
Geometric mean ratio of AUCinf (%, 90% CI) [2]: 89.15 (81.72–97.26) %
Geometric mean ratio of Cmax (%, 90% CI) [2]: 83.14 (69.96–98.81) %
Geometric mean ratio of AUC0–24 h (%, 90% CI) ([2]; listed as glimepiride): 86.43 (77.56, 96.31) %
Geometric mean ratio of Cmax (%, 90% CI) ([2]; listed as glimepiride): 83.14 (69.96, 98.81) %
AUC(0-inf) [2, 8]: 1380 ± 507 ng·h/mL
Cmax [2, 8]: 251 ± 87 ng/mL
AUC(0-t) ([2]; male, human, plasma, oral, 4 mg, AUC0–24 h, glimepiride 4 mg qd alone, N = 16): 1280 ± 483 ng·h/mL
AUC(0-t) ([2]; male, human, plasma, oral, 4 mg, AUC0–48 h, glimepiride 4 mg qd alone, N = 16): 1300 ± 519 ng·h/mL
Tmax ([2]; male, human, plasma, oral, 4 mg, Tmax, glimepiride 4 mg qd alone, day 2, plasma, N = 16): 4.3 h
half-life ([2]; male, human, plasma, oral, 4 mg, t1/2,0–24 h, glimepiride 4 mg qd alone, N = 16): 510 min
half-life ([2]; male, human, plasma, oral, 4 mg, t1/2,0–48 h, glimepiride 4 mg qd alone, N = 16): 524 ± 287 min
AUC(0-t) ([2]; male, human, plasma, oral, AUC0–24 h, glimepiride 4 mg qd + OJS 4.35 g tid, N = 13): 1130 ± 406 ng·h/mL
AUC(0-t) ([2]; male, human, plasma, oral, AUC0–48 h, glimepiride 4 mg qd + OJS 4.35 g tid, N = 13): 1160 ± 468 ng·h/mL
Tmax ([2]; male, human, plasma, oral, Tmax, glimepiride 4 mg qd + OJS 4.35 g tid, day 10, plasma, N = 13): 5 h
half-life ([2]; male, human, plasma, oral, t1/2,0–24 h, glimepiride 4 mg qd + OJS 4.35 g tid, N = 13): 610 ± 290 min
half-life ([2]; male, human, plasma, oral, t1/2,0–48 h, glimepiride 4 mg qd + OJS 4.35 g tid, N = 13): 560 ± 181 min
Metabolic ratio (M1 AUC0–24 h / glimepiride AUC0–24 h), co-administration versus glimepiride alone ([2]; p = 0.1209): not significantly different
SMILES: CCC1=C(C)CN(C(=O)NCCc2ccc(S(=O)(=O)NC(=O)N[C@H]3CC[C@H](C)CC3)cc2)C1=O [Glimepiride]
PP2, Post- ([1]; 2-hour serum glucose after glimepiride, mean ± SD): 95.75 ± 29.96 mg/dL
AUG0–4 h % Change ([1]; 100×(change value / baseline value)): 16.15 ± 5.07%
AUG0–3h, Post- [1, 5]: 334.12 ± 44.24 mg·h/dL
Gmax, Post- [1, 5]: 173.88 ± 20.38 mg/dL
AUG0–3h % Change [1]: 15.54 ± 5.82%
Gmax % Change [1]: 25.48 ± 8.23%
PP2 % Change [1]: 16.88 ± 14.00%
AUG0–3h Change ([1]; post- versus pre-glimepiride): 61.07 ± 29.20 mg·h/dL
AUG0–4 h Change ([1]; post- versus pre-glimepiride): 77.01 ± 32.47 mg·h/dL
Gmax Change ([1]; post- versus pre-glimepiride): 45.63 ± 16.39 mg/dL
PP2 Change ([1]; post- versus pre-glimepiride): 17.94 ± 13.67 mg/dL
AUG0–3 h after glimepiride treatment (glucose): 291.8 ± 48.5 mg·h/dL
Gmax after glimepiride treatment (glucose): 134.4 ± 26.9 mg/dL
Reduction of Gmax (glucose): 68.9 ± 25.1 mg/dL
Metabolites recovered in the urine [3]: approximately 60%
Reduction of mean AUC ([3]; co-administered with aspirin): 34%
Reduction of mean Cmax ([3]; co-administered with aspirin): 4%
Time to peak plasma concentrations ([3]; following oral administration): 2 to 3 h
Decrease of mean AUC [3, 9]: 9%
Decrease of mean Cmax [3, 9]: 8%
Reduction of AUC ([3]; with colesevelam): 18%
Reduction of Cmax ([3]; with colesevelam): 8%
Subjects reporting adverse events (healthy male subjects; period 1 (glimepiride alone), 6 out of 16 subjects): 37.5%
Subjects reporting adverse events (healthy male subjects; period 2 (OJS with glimepiride), 2 out of 13 subjects): 15.4%

SMILES: Cc1ccc(-c2cc(C(F)(F)F)nn2-c2ccc(S(N)(=O)=O)cc2)cc1 [celecoxib]
Decrease of AUC ([3]; co-administration with OJS): 11.5%
Decrease of Cmax ([3]; co-administration with OJS): 27.5%

AUC0–24 h [4]: 237.85 ± 61.69 ng·h/mL
AUC0–48 h [4]: 243.05 ± 70.10 ng·h/mL
AUCinf [4]: 258.17 ± 67.99 ng·h/mL
Cmax [4]: 32.61 ± 8.08 ng/mL
Tmax [4]: 5.0 (3.0–6.0) h
Reduction of mean Cmax with OJS compared to glimepiride monotherapy [2]: ~14.67%
CL/F [2, 6]: 17.13 ± 4.89 L/h
t1/2,0–24 h [2, 6]: 8.04 ± 2.95 h
t1/2,0–48 h [2, 6]: 8.02 ± 2.80 h
CL/F [2, 7]: 16.40 ± 4.00 L/h
t1/2,0–24 h [2, 7]: 6.73 ± 1.35 h
t1/2,0–48 h [2, 7]: 7.08 ± 1.97 h
Geometric mean ratio of AUC0–24 h (%, 90% CI) [2]: 91.77 (85.53–98.46) %
Geometric mean ratio of AUC0–48 h (%, 90% CI) [2]: 92.48 (85.29–100.26) %
Geometric mean ratio of AUCinf (%, 90% CI) [2]: 95.05 (89.10–101.40) %
Geometric mean ratio of Cmax (%, 90% CI) [2]: 85.33 (77.77–93.62) %
SMILES: CCC1=C(C)CN(C(=O)NCCc2ccc(S(=O)(=O)NC(=O)NC3CCC(CO)CC3)cc2)C1=O (stereo not drawn) [M1, hydroxy glimepiride]

Source: article PMC12267423, “Comparisons of pharmacokinetics of glimepiride in combination with Ojeok-san versus glimepiride alone: an open-label, one-sequence, two-treatment controlled clinical study” (Scientific Reports, 2025)
